Assay results: PMC11050087, “Polyphenols from Maackia amurensis Heartwood Protect Neuronal Cells from Oxidative Stress and Prevent Herpetic Infection” (International Journal of Molecular Sciences, 2024)
Several values for one entry are separate records, joined by “and”; a condition that tells them apart may be missing. Equal values may be shown once. Read-outs that look alike come from different tables or passages of the source.

Experiments:
[1] = system: 6-OHDA-treated Neuro-2a cells; assay: 6-OHDA-induced neurotoxicity model, cell viability test (MTT); assay type: cell-based, murine; settings: compounds at 10, 1, 0.1 µM; 6-OHDA 100 µM
[2] = Cytotoxicity against Vero cells (MTT assay); assay type: cell-based; settings: African green monkey
Protocol: We prepared the stock solutions of the tested compounds (10 mg/mL) in DMSO (Sigma, St. Louis, MO, USA). For the MTT assay and further studies of anti-HSV-1 activity, we diluted the stock solutions with DMEM so that the final concentration of DMSO was 0.5%.
We used MTT assay to determine the cytotoxic effect of the tested compounds against Vero cells. We performed the MTT assay as previously described.

HSV-1 [3] = assay: Virucidal activity, CPE inhibition assay (HSV-1 pretreated with compounds); assay type: cell-based, HSV-1 strain L2; settings: for IC50: Human alphaherpesvirus 1, virus pretreated with compound (virucidal), Vero cells, 100 TCID50/mL; for SI: ratio of CC50 to IC50, virucidal scheme
[4] = system: 6-OHDA-treated Neuro-2a cells; assay: Apoptosis profile by flow cytometry (Annexin V & Dead Cell Kit); assay type: cell-based, murine; settings: Table 1; polyphenols 10 µM, 6-OHDA 100 µM, 24 h; mean
Protocol: We investigated the effect of polyphenolic compounds from M. amurensis on apoptosis profile in 6-OHDA-treated Neuro-2a cells by flow cytometry using fluorescent annexin V conjugate as a fluorescent dye. We observed significant changes in apoptosis profile in Neuro-2a cells after 6-OHDA-treatment. […] Polyphenols 3, 6 and 13 diminished the neurotoxic effect of 6-OHDA-treatment.
The cells were incubated for 1 h in a 6-well plate (5 × 10^4 cells/mL) with polyphenolic compounds (10 µM). Then, 6-OHDA (100 µM) was added, and cell suspension was incubated for 24 h. After incubation, the maintenance media was collected, and the cells were washed by cold PBS twice and incubated with trypsin-EDTA solution. The cell suspension was washed with cold PBS twice again, centrifugated and then used for apoptosis detection by Muse® Annexin V & Dead Cell Kit in accordance with the manufacturer’s instructions (Luminex, Austin, TX, USA). The fluorescence was measured with Muse® Cell Analyzer (Luminex, Austin, TX, USA) and the data were processed by Muse 1.5 Analysis software (Luminex, Austin, TX, USA).

HSV-1 [5] = assay: Pretreatment of cells with polyphenolic compounds, CPE inhibition assay; assay type: cell-based, HSV-1 strain L2; settings: for IC50: Human alphaherpesvirus 1, cells pretreated 2 h before infection, CPE assay; for Pretreatment of Cells SI: ratio of CC50 to IC50
Protocol: (§1) In order to study the mechanism of action of these compounds, two additional schemes of treatment of the virus and Vero cells with polyphenols were applied: the compounds were added before virus infection (pretreatment of cells) and after penetration of the virus into host cells (treatment of infected cells). The fourth method of exposure where the virus and polyphenols were added to cells simultaneously (simultaneous treatment) was previously described by us in [22]. The anti-HSV-1 activity of polyphenols was assessed using the cytopathic effect inhibition (CPE) assay.
The monolayer of cells was pretreated with different concentrations of the studied compounds for 2 h at 37 °C. After washing, the cells were infected with 100 TCID50/mL of the virus at 37 °C for 1 h. Then, unabsorbed virus was removed by washing with PBS (Sigma, Saint-Louis, MO, USA), and cells were incubated in the maintenance medium until CPE appeared.

HSV-1 [6] = assay: Treatment of virus-infected cells with polyphenols, CPE inhibition assay; assay type: cell-based, HSV-1 strain L2; settings: for IC50: Human alphaherpesvirus 1, compound added after virus adsorption and penetration, CPE assay; for Treatment of Infected Cells SI: ratio of CC50 to IC50
Protocol: as §1
The monolayer of cells was infected with the virus (100 TCID50/mL) at 37 °C for 1 h, and then the cells were washed with PBS (Sigma, Saint-Louis, MO, USA) and treated with different concentrations of the studied compounds and incubated until CPE appeared.

HSV-1 [7] = system: HSV-1; design: method as in PMID 36985562; settings: ref [22], cited from earlier work; for Simultaneous Treatment SI: ratio of CC50 to IC50; for Simultaneous Treatment IC50 / IC50: virus and compound added to cells simultaneously, CPE assay; for IC50: read-out: Simultaneous Treatment IC50

SMILES	effect on viability of 6-OHDA-treated Neuro-2a cells (in words) [1]	CC50 [2]	IC50 (HSV-1 [3]; CPE assay)	SI (HSV-1 [3])	Dead [4]	Early apop. [4]	Late apop./Dead [4]	Live [4]	virucidal activity against HSV-1 (in words) (HSV-1 [3]; CPE assay, virus pretreated with compound)	IC50 (HSV-1 [5])	Pretreatment of Cells SI (HSV-1 [5])	IC50 (HSV-1 [6])	Treatment of Infected Cells SI (HSV-1 [6])	Simultaneous Treatment SI (HSV-1 [7])	Simultaneous Treatment IC50 (HSV-1 [7])	IC50 (HSV-1 [7])
Oc1ccc(/C=C/c2cc(O)cc(O)c2)cc1 [Compound 1, resveratrol]	did not cause any increase in the viability	123 µg/mL and 540 µM	9.6 µg/mL and 42.1 µM	12.8 ± 1.9												
O=C1C[C@@H](c2ccc(O)cc2)Oc2cc(O)ccc21 [Compound 6, liquiritigenin]					0.61 ± 0.13%	27.67 ± 1.09 %	10.89 ± 0.86%	61.83 ± 0.09 %	did not show virucidal activity							
Oc1cc(O)cc(/C=C/c2ccc3c(c2)O[C@H](c2cc(O)cc(O)c2)[C@@H](c2ccc(O)c(O)c2)O3)c1 [Compound 9, maackin]	did not show significant activity		2.4 µg/mL and 4.9 µM	112.3 and 112.3 ± 13.5						70.3 µg/mL and 145 µM	3.8 and 3.8 ± 0.5	24.5 µg/mL and 50.4 µM	11.0 ± 1.4	15.3 ± 1.9	17.6 ± 2.3 µg/mL	36.2 ± 4.7 µM
Oc1ccc(/C=C/c2cc(O)cc3c2[C@H](c2cc(O)cc(O)c2)[C@@H](c2ccc(O)c(O)c2)O3)cc1 [Compound 13, scirpusin A]		424 ± 50.1 µM	2.6 µg/mL and 5.5 µM		0.73 ± 0.15%	30.18 ± 1.13 %	12.2 ± 0.34%	56.90 ± 1.32 %		47.2 µg/mL and 100 µM	4.2 and 4.2 ± 0.6	20.2 µg/mL and 43 µM	9.8 ± 1.2	14.4 ± 1.7	13.8 ± 1.6 µg/mL	29.4 ± 3.4 µM
